≈ marks a conversion by molar mass, not a printed value. Where two headings read alike, the source gives them in different places.
How the values were obtained:
[1] = system: human and monkey cell lines; design: method as in PMID 14513908; details: cited from earlier work
P. falciparum = system: P. falciparum; design: method as in PMID 14513908; details: cited from earlier work
[2] = Cytotoxicity on THP-1 derived macrophages (AlamarBlue); type: cell-based; details: human, THP-1 cells differentiated into macrophages, THP-1 macrophages
Method: For the cytotoxicity assay, human monocytic THP-1 cells were differentiated into macrophages in 96-well microtiter plates for 72 h, as described above. The medium was then replaced, and the cells were exposed to the compounds at increasing concentrations starting at IC50 value for each Leishmania spp. line. After 72 h of incubation with the compounds, AlamarBlue™ was added and the absorbance at 570 and 600 nm was measured after 4 h. Controls with untreated and DMSO 1%-treated cells were run in parallel. The results were expressed as the percentual difference in the reduction between treated and untreated cells. The compound concentration that inhibits 50% of the THP-1 cell viability (CC50) was determined. The CC50 values were determined by non-linear regression using a variable slope model (log(concentration) vs. growth inhibition) with the GraphPad Prism v8.2.0 (CA, USA) software. Triplicates were run in the same plate and the experiments were repeated at least once.

[3] = system: Leishmania infantum (MHOM/BR/1974/PP75) in THP-1 macrophages; assay: Anti-Leishmania infantum activity assay (infected THP-1 macrophages, red fluorescence); type: cell-based; details: for IC50: Leishmania infantum, L. infantum in THP-1 macrophages, 72 h; for Status: L. infantum, activity status from IC50 and SI
Method: (§1) Their half-maximum cytotoxic concentrations (CC50) and their selectivity indices (SI), obtained as the ratio of the cytotoxic concentration against the bioactive concentration are shown in Table 2. Theoretically, the higher the SI value, the greater the effectiveness for the target and the lower the toxicity of the compound, characterizing a potentially safe and selective drug.
Cells derived from the human monocytic strain THP-1 were cultured in complete Rowell Park Memorial Institute (RPMI)-1640 medium (supplemented with 10% fetal bovine serum, 100 U/mL penicillin, and 100 μg/mL streptomycin). Monocytes were differentiated into macrophages by the addition of 20 ng/mL phorbol myristate acetate (PMA). […] The IC50 values were determined by non-linear regression using a variable slope model (log[concentration] vs. growth inhibition) with the GraphPad Prism v8.2.0 (Boston, MA, USA) software. Controls with uninfected cells, untreated infected cells, infected cells treated with amphotericin B at 0.25 μM (positive control) or DMSO 1% were used. Quadruplicates were run in the same plate, and the experiments were repeated at least once.

[4] = system: T. cruzi Tulahuen strain in L929 cells; assay: Anti-Trypanosoma cruzi activity assay (infected L929 cells, beta-galactosidase reporter); type: cell-based; details: for IC50: Trypanosoma cruzi, T. cruzi Tulahuen in L929 cells, 96 h; for Status: T. cruzi, activity status from IC50 and SI
Method: as §1
The in vitro anti-T. cruzi activity was evaluated on L929 cells (mouse fibroblasts) infected with Tulahuen strain of the parasite expressing the Escherichia coli β-galactosidase as reporter gene according to the method described previously. Briefly, four thousand L929 cells were added to each well of a 96-well microtiter plate. After an overnight incubation, a 10 fold excess of trypomastigotes were added to the cells, incubated for 2 h, then replaced with 200 μL of fresh medium and incubated for additional 48 h to establish the infection. For IC50 determination, the cells were exposed to each synthesized compound at serial decreasing dilutions and the plate was incubated for 96 h. Afterwards, 50 μL of 500 μM chlorophenol red beta-D-galactopyranoside (CPRG) in 0.5% Nonidet P40 was added to each well, and the plate incubated for 16 to 20 h, after which the absorbance at 570 nm was measured. Controls with uninfected cells, untreated infected cells, infected cells treated with benznidazole at 3.8 μM (positive control) or 1% DMSO were used. The results were expressed as the percentage of T. cruzi growth inhibition in compound tested cells as compared to the infected cells and untreated cells. The IC50 values were calculated by linear interpolation. Quadruplicates were run in the same plate, and the experiments were repeated at least once.
(§2) IC50 over T. cruzi and L929 cells were determined by linear interpolation and the selectivity index (SI) was calculated by the ratio of CC50 L929 cells/ IC50 T. cruzi.

[5] = Cytotoxicity on L929 cells (AlamarBlue); type: cell-based; details: mouse, L929 mouse fibroblast cells
Method: The medium was then replaced, and the cells were exposed to compounds at increasing concentrations starting at IC50 value for T. cruzi. After 96 h of incubation with the compounds, AlamarBlue^TM was added and the absorbance at 570 and 600 nm was measured after 4–6 h. Controls with untreated and DMSO 1%-treated cells were run in parallel. The results were expressed as the percent difference in the reduction between treated and untreated cells. The compound concentration that inhibits 50% of the L929 cell viability (CC50) was determined. Quadruplicates were run in the same plate and the experiments were repeated at least once.
as §2

[6] = system: P. falciparum chloroquine-resistant and mefloquine-sensitive W2 clone; assay: Anti-Plasmodium falciparum activity assay (SYBR, erythrocytic asexual stages); type: cell-based; details: for IC50: Plasmodium falciparum, W2, 48 h
Method: In vitro assay with P. falciparum culture were performed as described previously. […] The activity was measured using the SYBR assay with the parasite suspension (0.5% parasitemia and 2% hematocrit) with minor modifications. The test compounds, in serial dilutions, were incubated in “U” bottom 96-wells plates. After 48 h at 37 °C, the culture supernatant was removed and replaced by 100 µL of lysis buffer solution [Tris (20 mM; pH 7.5), EDTA (5 mM), saponin (0.008%; wt/vol), and Triton X 100 (0.08%; vol/vol)] followed by addition of 0.2 µL/mL SYBR Safe (Sigma-Aldrich, Carlsbad, CA, USA). The plate content was transferred to a flat bottom plate and incubated in the dark for 30 min. The plate was read in a fluorometer (Synergy H4 Hibrid Reader, Biotek) with excitation at 485 nm and 535 nm of emission. In all tests, the compound activities were expressed by the 50% inhibitory concentration of the parasite growth (IC50) when compared to the drug-free controls and estimated using the curve-fitting software Origin 8.0 (OriginLab Corporation, Northampton, MA, USA).

[7] = Cytotoxicity, neutral red uptake assay on BGM cells; type: cell-based; details: BGM monkey kidney cells
Method: The BGM cells were incubated with 20 µL of the drugs at different concentrations (≤1000 µg/mL) for 24 h in a 5% CO2 at 37 °C. The neutral red uptake assay was used to evaluate the lysosomal integrity and distinguishes live cells from dead by its ability to incorporate the dye. Briefly, to each well was added 0.2 mL medium containing 50 µg/mL of neutral red solution. The plate was incubated for another 3 h at 37 °C to allow for the uptake of the vital dye into the lysosomes of viable uninjured cells. After removal of medium, 200 µL of a mixture of 0.5% formaldehyde-1% CaCl2 was added to the cells and incubated by 5 min. The supernatant was removed and 100 µL of a solution of 1% acetic acid-50% ethanol was added to each well to extract the dye. After homogenization, the optical density of each well of the plate was measured using a 540 nm wavelength on a spectrophotometer. This absorbance has shown a linear relationship with the number of surviving cells. The cell viability was expressed as the percentage of control absorbance obtained from the untreated cells after subtracting the appropriate background.

[8] = P. falciparum W2 clone, 48 h, SYBR, read-out: IC50

CN1C(=O)C2(CO)NC(=O)C1(Cc1ccccc1)SSSS2 (stereo not shown) [1-demethylhyalodendrin tetrasulfide]
cytotoxicity [1]: high cytotoxicity
IC50 (P. falciparum): 6.7 µM

C[C@@H]1[C@H](O)[C@@H](C)/C=C/C=C/C=C/C=C/C=C/C=C/C=C/[C@H](O[C@@H]2O[C@H](C)[C@@H](O)[C@H](N)[C@@H]2O)C[C@@H]2O[C@](O)(C[C@@H](O)C[C@@H](O)[C@H](O)CC[C@@H](O)C[C@@H](O)CC(=O)O[C@H]1C)C[C@H](O)[C@H]2C(=O)O [Amphotericin B, reference compound]
CC50 at 72 h [2]: 367 ± 1 µg/mL (≈ 397 µM)
IC50 [3]: 0.228 ± 0.025 µg/mL (≈ 0.247 µM)

O=C(Cn1ccnc1[N+](=O)[O-])NCc1ccccc1 [Benznidazole, reference compound]
IC50 [4]: 0.5 ± 0.1 µg/mL (≈ 1.92 µM)
CC50 at 96 h [5]: 540 µg/mL (≈ 2070 µM)

CCN(CC)CCCC(C)Nc1ccnc2cc(Cl)ccc12 (stereo not shown) [Chloroquine, reference compound]
IC50 [6]: 0.174 ± 0.055 µg/mL

CCc1ccc(C2C(=O)N(c3ccc(Cl)cc3)CC(=O)N2c2ccccc2)cc1 (stereo not shown) [Compound 2]
Status [3]: inactive
IC50 [3]: > 100 µg/mL

CN(C)c1ccc(C2C(=O)N(c3ccc(Cl)cc3)CC(=O)N2c2ccccc2)cc1 (stereo not shown) [Compound 3]
Status [3]: inactive
IC50 [3]: 49.1 ± 1.6 µg/mL (≈ 117 µM)

O=C1C(c2ccc(Cl)cc2)N(c2ccccc2)C(=O)CN1c1ccc(Cl)cc1 (stereo not shown) [Compound 4]
Status [3]: inactive
IC50 [3]: 35.7 ± 0.8 µg/mL (≈ 86.8 µM)

O=C1C(c2ccccc2F)N(c2ccccc2)C(=O)CN1c1ccc(Cl)cc1 (stereo not shown) [Compound 5]
Status [4]: toxic (selectivity index = CC50/IC50, values < 10 are considered toxic)
IC50 [4]: 9.3 ± 0.1 µg/mL (≈ 23.6 µM)
CC50 at 96 h [5]: 29.2 µg/mL (≈ 74 µM)
CC50 at 24 h [7]: ≤ 3.1 µg/mL
IC50 [6, 8]: 15.6 ± 2.6 µg/mL

CC(=O)Nc1ccc(C2C(=O)N(c3ccc(Cl)cc3)CC(=O)N2c2ccccc2)cc1 (stereo not shown) [Compound 7]
CC50 at 72 h [2]: 679 ± 1 µg/mL (≈ 1560 µM)
Status [3]: part. ACTIVE (20 > IC50 > 10 µg/mL partially active)
IC50 [3]: 16 ± 1 µg/mL (≈ 36.9 µM)

COc1ccc(C2C(=O)N(c3ccc(Cl)cc3)CC(=O)N2c2ccccc2)cc1Br (stereo not shown) [Compound 8]
Status [4]: ACTIVE
IC50 [4]: 7.3 ± 1.5 µg/mL (≈ 15 µM)
CC50 at 96 h [5]: > 400 µg/mL

COc1ccc(OC)c(C2C(=O)N(c3ccc(Cl)cc3)CC(=O)N2c2ccccc2)c1 (stereo not shown) [Compound 9]
Status [3]: inactive
IC50 [3]: 50.8 ± 1.1 µg/mL (≈ 116 µM)

O=C1C(c2cccc(Cl)c2)N(c2ccccc2)C(=O)CN1c1ccc(Cl)cc1 (stereo not shown) [Compound 10]
Status ([6]; P. falciparum, activity status from IC50 and SI): inactive
IC50 [6, 8]: 28.1 ± 0.3 µg/mL

Reference: publication PMC10893061, “Novel 2,5-Diketopiperazines with In Vitro Activities against Protozoan Parasites of Tropical Diseases” (Pharmaceuticals, 2024)
